Measurements reported in patent US7323166B2, “Lactic acid bacteria cultures that inhibit food-borne pathogens” (Board of Regents University of Nebraska, priority 2002, dated 2008).

System: cattle isolates
Experiment: Test of antibiotic resistance in cattle isolates towards various antibiotics (share of isolates per category)
Type: cell-based, lactic acid bacteria (LAB)
Conditions: share of the 19 cattle isolates
Excerpt: The following are examples of types of drugs that would be included in the three categories: Category I: quinolones, vancomycin, dalfopristin/quinupristin, third generation cephalosporins; Category II: ampicillin, first and second generation cephalosporins, erythromycin, trimethoprim/sulfamethoxazole; and Category III: inophores (monensin) and polymixins (Polymixin B and colistin). […] A commercial antimicrobial susceptibility test kit-Etest (AB Biodisk, North America Inc., Piscatway, N.J.) was used to determine the minimum inhibitory concentrations (MIC) of the antibiotics for the isolates selected. Etest strips containing a predefined exponential gradient of a particular antibiotic were applied to agar plates containing Mueller Hinton Agar (Difco) pre-inoculated with an overnight culture of the given bacteria (inoculum of 0.5 McFarland turbidity in 0.85% NaCl). The agar plates with the strips were immediately incubated at 37° C. for 16-20 hours, when bacterial growth became distinctly visible. After incubation, MIC values (μg/ml) were read where the inhibition ellipse (centered along the strip) intersected the scale at the edge of the strip. The susceptibility categorization of organisms towards a specific antibiotic was provided in the Etest antibiotic supplements for each agent and was used to examine the susceptibility of lactic acid bacteria (LAB) isolates. Based on the categorization, MIC for a particular organism was reported as susceptible (S), intermediate (I), or resistant (R). When growth occurred along the entire strip, i.e. no inhibition ellipse was seen, the MIC was reported as greater than (>H) the highest value on the reading scale.

SMILES | % Intermediate | % Resistant | % Susceptible | % Resistant (listed as grepafloxacin)
CC1(C)S[C@@H]2[C@H](NC(=O)[C@H](N)c3ccccc3)C(=O)N2[C@H]1C(=O)O [AM, Ampicillin] | 0.0% | 10.0% | 90.0% | –
CC[C@H]1OC(=O)[C@H](C)[C@@H](O[C@H]2C[C@@](C)(OC)[C@@H](O)[C@H](C)O2)[C@H](C)[C@@H](O[C@@H]2O[C@H](C)C[C@H](N(C)C)[C@H]2O)[C@](C)(O)C[C@@H](C)C(=O)[C@H](C)[C@@H](O)[C@]1(C)O [EM, Erythromycin] | 5.0% | 21.0% | 74.0% | –
Cc1c(F)c(N2CCNC(C)C2)cc2c1c(=O)c(C(=O)O)cn2C1CC1 (stereo not shown) [GP, Grepafloxacin] | 10.0% | 58.0% | 32.0% | 58%
C[C@H]1COc2c(N3CCN(C)CC3)c(F)cc3c(=O)c(C(=O)O)cn1c23 [LE, Levofloxacin] | 37.0% | 5.0% | 58.0% | –
CN(C)[C@@H]1C(O)=C(C(N)=O)C(=O)[C@@]2(O)C(O)=C3C(=O)c4c(O)cccc4[C@@](C)(O)[C@H]3C[C@@H]12 [TC, Tetracycline] | 0.0% | 31.0% | 69.0% | –
